Experimental data taken from patent publication EP2270002A1 (Vereniging voor Christelijk Hoger Onderwijs, …, priority 2009, dated 2011).

target: histamine H4 receptor (Homo sapiens, UniProt Q9H3N8); assay: histamine H4 receptor Ki (Table 1; no method described); type: binding

Row | Structure (SMILES) | Ki [nM]
1 | Cc1ccc2c(N3CCN(C)CC3)nc(N)nc2c1 [Compound 1] | 24
2 | CN1CCN(c2nc(N)nc3cc(Br)ccc23)CC1 [Compound 2, 7-bromo-4-(4-methylpiperazin-1-yl)quinazolin-2-amine] | 17
3 | CN1CCN(c2nc(N)nc3cc(-c4ccoc4)ccc23)CC1 [Compound 7, 7-(furan-3-yl)-4-(4-methylpiperazin-1-yl)quinazolin-2-amine] | 6
4 | CN1CCN(c2nc(N)nc3cc(-c4ccsc4)ccc23)CC1 [Compound 9, 4-(4-methylpiperazin-1-yl)-7-(thiophen-3-yl)quinazolin-2-amine] | 5
5 | Cc1cccc2c(N3CCN(C)CC3)nc(N)nc12 [Compound 10] | 91
6 | CN1CCN(c2nc(N)nc3c(Br)cccc23)CC1 [Compound 11, 8-bromo-4-(4-methylpiperazin-1-yl)quinazolin-2-amine] | 111
7 | CN1CCN(c2nc(N)nc3c(-c4ccoc4)cccc23)CC1 [Compound 16, 8-(furan-3-yl)-4-(4-methylpiperazin-1-yl)quinazolin-2-amine] | 109

Other lines, results leading:

Row | Ki [nM] | Structure (SMILES)
8 | 19 | CN1CCN(c2nc(N)nc3cc(-c4ccccc4)ccc23)CC1 [Compound 3, 4-(4-methylpiperazin-1-yl)-7-phenylquinazolin-2-amine]
9 | 90 | Cc1cccc(C)c1-c1ccc2c(N3CCN(C)CC3)nc(N)nc2c1 [Compound 4, 7-(2,6-dimethylphenyl)-4-(4-methylpiperazin-1-yl)quinazolin-2-amine]
10 | 29 | CN1CCN(c2nc(N)nc3cc(-c4ccc(C#N)cc4)ccc23)CC1 [Compound 5, 4-(2-amino-4-(4-methylpiperazin-1-yl)quinazolin-7-yl)benzonitrile]
11 | 55 | COc1ccc(-c2ccc3c(N4CCN(C)CC4)nc(N)nc3c2)cc1 [Compound 6, 7-(4-methoxyphenyl)-4-(4-methylpiperazin-1-yl)quinazolin-2-amine]
12 | 4 | CN1CCN(c2nc(N)nc3cc(-c4ccco4)ccc23)CC1 [Compound 8, 7-(furan-2-yl)-4-(4-methylpiperazin-1-yl)quinazolin-2-amine]
13 | 32 | CN1CCN(c2nc(N)nc3c(-c4ccccc4)cccc23)CC1 [Compound 12, 4-(4-methylpiperazin-1-yl)-8-phenylquinazolin-2-amine]
14 | 221 | Cc1cccc(C)c1-c1cccc2c(N3CCN(C)CC3)nc(N)nc12 [Compound 13, 8-(2,6-dimethylphenyl)-4-(4-methylpiperazin-1-yl)quinazolin-2-amine]
15 | 2330 | CN1CCN(c2nc(N)nc3c(-c4ccc(C#N)cc4)cccc23)CC1 [Compound 14, 4-(2-amino-4-(4-methylpiperazin-1-yl)quinazolin-8-yl)benzonitrile]
16 | 945 | COc1ccc(-c2cccc3c(N4CCN(C)CC4)nc(N)nc23)cc1 [Compound 15, 8-(4-methoxyphenyl)-4-(4-methylpiperazin-1-yl)quinazolin-2-amine]
